According to patent US11173151B2, “Substituted triazole derivatives and uses thereof” (BAYER AKTIENGESELLSCHAFT, priority 2017, dated 2021):

Columns and labels:
human V2 receptor = biological target: T1, human V2 receptor (Homo sapiens, UniProt P30518); assay: Cellular in vitro assay for determining vasopressin receptor activity, V2 receptor cell line (CHO, CRE-luciferase); assay type: cell-based; details: CHO cell line transfected with human V2 receptor; [Arg8]-vasopressin at EC50 concentration, 3 hours; read-out: IC50 hV2
T1 construct: expressed in transfected cells; host or cells: CHO K1 (ATCC) expressing firefly luciferase under a CRE-responsive promoter
T1 sequence (P30518 whole entry): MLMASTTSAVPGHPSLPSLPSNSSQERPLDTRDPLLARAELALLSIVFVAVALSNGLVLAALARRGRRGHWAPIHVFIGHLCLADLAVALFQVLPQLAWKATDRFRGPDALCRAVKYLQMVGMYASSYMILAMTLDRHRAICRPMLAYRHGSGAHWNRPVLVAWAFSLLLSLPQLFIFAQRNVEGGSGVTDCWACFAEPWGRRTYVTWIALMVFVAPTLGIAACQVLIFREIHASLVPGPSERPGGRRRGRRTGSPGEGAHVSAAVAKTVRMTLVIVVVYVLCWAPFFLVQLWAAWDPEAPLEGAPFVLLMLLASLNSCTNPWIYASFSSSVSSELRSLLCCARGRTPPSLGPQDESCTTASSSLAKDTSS

human V1a receptor = biological target: T2, human V1a receptor (Homo sapiens, UniProt P37288); assay: Cellular in vitro assay for determining vasopressin receptor activity, V1a receptor cell line (CHO, aequorin luminescence); assay type: cell-based; details: for IC50: CHO cell line transfected with human V1a receptor, [Arg]-vasopressin at EC50 concentration, read-out: IC50 hV1a; for ratio IC50 hV2/hV1a: selectivity ratio IC50 hV2 / IC50 hV1a
T2 construct: expressed in transfected cells; host or cells: CHO K1 (ATCC), also stably transfected with a modified aequorin
T2 sequence (P37288 whole entry): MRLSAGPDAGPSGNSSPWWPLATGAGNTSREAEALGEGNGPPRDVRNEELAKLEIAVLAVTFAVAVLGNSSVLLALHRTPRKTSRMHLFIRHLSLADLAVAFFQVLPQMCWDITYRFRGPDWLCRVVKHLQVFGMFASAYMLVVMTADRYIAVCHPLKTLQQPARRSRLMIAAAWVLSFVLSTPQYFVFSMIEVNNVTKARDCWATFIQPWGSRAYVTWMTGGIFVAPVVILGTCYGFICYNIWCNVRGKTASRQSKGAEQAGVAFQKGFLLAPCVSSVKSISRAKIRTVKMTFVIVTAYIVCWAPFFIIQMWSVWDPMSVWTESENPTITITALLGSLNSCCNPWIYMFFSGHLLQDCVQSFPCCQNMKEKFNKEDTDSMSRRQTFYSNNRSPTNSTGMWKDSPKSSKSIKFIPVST
Summary of the method: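 Luminescence from reconstituted aequorin, reporting intracellular calcium release, was measured immediately after adding [Arg]-vasopressin at EC50 concentration to CHO K1 cells pretreated 10 minutes with graded compound concentrations. Inhibition gave IC50 values.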

Structure (SMILES)	IC50 (human V2 receptor)	IC50 (human V1a receptor)	ratio IC50 hV2/hV1a (human V1a receptor)
O=C(NCC(F)(F)F)c1ccccc1-n1cnc(Cn2nc(-c3ccc(Cl)cc3)n(C[C@@H](O)C(F)(F)F)c2=O)n1 [Example 168, 2-[3-({3-(4-Chlorophenyl)-5-oxo-4-[(2R)-3,3,3-trifluoro-2-hydroxypropyl]-4,5-dihydro-1H-1,2,4-triazol-1-yl}methyl)-1H-1,2,4-triazol-1-yl]-N-(2,2,2-trifluoroethyl)benzamide]	1.54 µM	0.0285 µM	54.1
CNC(=O)c1ccccc1-n1cnc(Cn2nc(-c3ccc(Cl)cc3)n(C[C@H](O)C(F)(F)F)c2=O)n1 [Example 169, 2-[3-({3-(4-Chlorophenyl)-5-oxo-4-[(2S)-3,3,3-trifluoro-2-hydroxypropyl]-4,5-dihydro-1H-1,2,4-triazol-1-yl}methyl)-1H-1,2,4-triazol-1-yl]-N-methylbenzamide]	0.28 µM	0.00236 µM	118.5
O=C1CN(C(=O)c2ccccc2-n2cnc(Cn3nc(-c4ccc(Cl)cc4)n(C[C@H](O)C(F)(F)F)c3=O)n2)CCN1 [Example 171, 4-{2-[3-({3-(4-Chlorophenyl)-5-oxo-4-[(2S)-3,3,3-trifluoro-2-hydroxypropyl]-4,5-dihydro-1H-1,2,4-triazol-1-yl}methyl)-1H-1,2,4-triazol-1-yl]benzoyl}piperazin-2-one]	7.35 µM	0.139 µM	52.8
O=C(c1ccccc1-n1cnc(Cn2nc(-c3ccc(Cl)cc3)n(C[C@H](O)C(F)(F)F)c2=O)n1)N1CCOCC1 [Example 172, 5-(4-Chlorophenyl)-2-({1-[2-(morpholin-4-ylcarbonyl)phenyl]-1H-1,2,4-triazol-3-yl}methyl)-4-[(2S)-3,3,3-trifluoro-2-hydroxypropyl]-2,4-dihydro-3H-1,2,4-triazol-3-one]	2.12 µM	0.00325 µM	–
CC(C)(N)CNC(=O)c1ccccc1-n1cnc(Cn2nc(-c3ccc(Cl)cc3)n(C[C@H](O)C(F)(F)F)c2=O)n1 [Example 173, N-(2-Amino-2-methylpropyl)-2-[3-({3-(4-chlorophenyl)-5-oxo-4-[(2S)-3,3,3-trifluoro-2-hydroxypropyl]-4,5-dihydro-1H-1,2,4-triazol-1-yl}methyl)-1H-1,2,4-triazol-1-yl]benzamide]	2.61 µM	0.00428 µM	608.2
O=C(NCC(F)(F)F)c1ccccc1-n1cnc(Cn2nc(-c3ccc(Cl)cc3)n(C[C@H](O)C(F)(F)F)c2=O)n1 [Example 174, 2-[3-({3-(4-Chlorophenyl)-5-oxo-4-[(2S)-3,3,3-trifluoro-2-hydroxypropyl]-4,5-dihydro-1H-1,2,4-triazol-1-yl}methyl)-1H-1,2,4-triazol-1-yl]-N-(2,2,2-trifluoroethyl)benzamide]	0.258 µM	0.00501 µM	51.4
O=C(c1ccccc1-n1cnc(Cn2nc(-c3ccc(Cl)cc3)n(C[C@H](O)C(F)(F)F)c2=O)n1)N1CCC(F)(F)CC1 [Example 175, 5-(4-Chlorophenyl)-2-[(1-{2-[(4,4-difluoropiperidin-1-yl)carbonyl]phenyl}-1H-1,2,4-triazol-3-yl)methyl]-4-[(2S)-3,3,3-trifluoro-2-hydroxypropyl]-2,4-dihydro-3H-1,2,4-triazol-3-one]	1.54 µM	0.0103 µM	150.7
O=C(NC1CS(=O)(=O)C1)c1ccccc1-n1cnc(Cn2nc(-c3ccc(Cl)cc3)n(C[C@H](O)C(F)(F)F)c2=O)n1 [Example 176, 2-[3-({3-(4-Chlorophenyl)-5-oxo-4-[(2S)-3,3,3-trifluoro-2-hydroxypropyl]-4,5-dihydro-1H-1,2,4-triazol-1-yl}methyl)-1H-1,2,4-triazol-1-yl]-N-(1,1-dioxidothietan-3-yl)benzamide]	1.25 µM	0.015 µM	83.3
O=C(NCCN1CCCC1=O)c1ccccc1-n1cnc(Cn2nc(-c3ccc(Cl)cc3)n(C[C@H](O)C(F)(F)F)c2=O)n1 [Example 177, 2-[3-({3-(4-Chlorophenyl)-5-oxo-4-[(2S)-3,3,3-trifluoro-2-hydroxypropyl]-4,5-dihydro-1H-1,2,4-triazol-1-yl}methyl)-1H-1,2,4-triazol-1-yl]-N-[2-(2-oxopyrrolidin-1-yl)ethyl]benzamide]	0.69 µM	0.0099 µM	69.7
O=C1CC[C@@H](CNC(=O)c2ccccc2-n2cnc(Cn3nc(-c4ccc(Cl)cc4)n(C[C@H](O)C(F)(F)F)c3=O)n2)N1 [Example 178, 2-[3-({3-(4-Chlorophenyl)-5-oxo-4-[(2S)-3,3,3-trifluoro-2-hydroxypropyl]-4,5-dihydro-1H-1,2,4-triazol-1-yl}methyl)-1H-1,2,4-triazol-1-yl]-N-{[(2S)-5-oxopyrrolidin-2-yl]methyl}benzamide]	1.8 µM	0.0185 µM	97.3
O=C1CC[C@H](CNC(=O)c2ccccc2-n2cnc(Cn3nc(-c4ccc(Cl)cc4)n(C[C@H](O)C(F)(F)F)c3=O)n2)N1 [Example 179, 2-[3-({3-(4-Chlorophenyl)-5-oxo-4-[(2S)-3,3,3-trifluoro-2-hydroxypropyl]-4,5-dihydro-1H-1,2,4-triazol-1-yl}methyl)-1H-1,2,4-triazol-1-yl]-N-{[(2R)-5-oxopyrrolidin-2-yl]methyl}benzamide]	1.7 µM	0.0061 µM	278.7
CC(=O)N[C@H]1CCN(C(=O)c2ccccc2-n2cnc(Cn3nc(-c4ccc(Cl)cc4)n(C[C@H](O)C(F)(F)F)c3=O)n2)C1 [Example 180, N-[(3S)-1-{2-[3-({3-(4-Chlorophenyl)-5-oxo-4-[(2S)-3,3,3-trifluoro-2-hydroxypropyl]-4,5-dihydro-1H-1,2,4-triazol-1-yl}methyl)-1H-1,2,4-triazol-1-yl]benzoyl}pyrrolidin-3-yl]acetamide]	2.95 µM	0.068 µM	43.4
CC1(C)CN(C(=O)c2ccccc2-n2cnc(Cn3nc(-c4ccc(Cl)cc4)n(C[C@H](O)C(F)(F)F)c3=O)n2)CCN1 [Example 181, 5-(4-Chlorophenyl)-2-[(1-{2-[(3,3-dimethylpiperazin-1-yl)carbonyl]phenyl}-1H-1,2,4-triazol-3-yl)methyl]-4-[(2S)-3,3,3-trifluoro-2-hydroxypropyl]-2,4-dihydro-3H-1,2,4-triazol-3-one]	18.7 µM	0.195 µM	–
O=C(NCCC(F)(F)F)c1ccccc1-n1cnc(Cn2nc(-c3ccc(Cl)cc3)n(C[C@H](O)C(F)(F)F)c2=O)n1 [Example 182, 2-[3-({3-(4-Chlorophenyl)-5-oxo-4-[(2S)-3,3,3-trifluoro-2-hydroxypropyl]-4,5-dihydro-1H-1,2,4-triazol-1-yl}methyl)-1H-1,2,4-triazol-1-yl]-N-(3,3,3-trifluoropropyl)benzamide]	2.05 µM	0.024 µM	85.4
O=C(NCC1CS(=O)(=O)C1)c1ccccc1-n1cnc(Cn2nc(-c3ccc(Cl)cc3)n(C[C@H](O)C(F)(F)F)c2=O)n1 [Example 184, 2-[3-({3-(4-Chlorophenyl)-5-oxo-4-[(2S)-3,3,3-trifluoro-2-hydroxypropyl]-4,5-dihydro-1H-1,2,4-triazol-1-yl}methyl)-1H-1,2,4-triazol-1-yl]-N-[(1,1-dioxidothietan-3-yl)methyl]benzamide]	3.1 µM	0.0285 µM	108.8
O=C(NCCN1CCNC1=O)c1ccccc1-n1cnc(Cn2nc(-c3ccc(Cl)cc3)n(C[C@H](O)C(F)(F)F)c2=O)n1 [Example 185, 2-[3-({3-(4-Chlorophenyl)-5-oxo-4-[(2S)-3,3,3-trifluoro-2-hydroxypropyl]-4,5-dihydro-1H-1,2,4-triazol-1-yl}methyl)-1H-1,2,4-triazol-1-yl]-N-[2-(2-oxoimidazolidin-1-yl)ethyl]benzamide]	1.8 µM	0.009 µM	199.4
CC(C)(N)CNC(=O)c1cc(Cl)ccc1-n1cnc(Cn2nc(-c3ccc(Cl)cc3)n(C[C@H](O)C(F)(F)F)c2=O)n1 [Example 186, N-(2-Amino-2-methylpropyl)-5-chloro-2-[3-({3-(4-chlorophenyl)-5-oxo-4-[(2S)-3,3,3-trifluoro-2-hydroxypropyl]-4,5-dihydro-1H-1,2,4-triazol-1-yl}methyl)-1H-1,2,4-triazol-1-yl]benzamide]	0.243 µM	0.00525 µM	46.2
CNC(=O)c1cc(Cl)ccc1-n1cnc(Cn2nc(-c3ccc(Cl)cc3)n(C[C@H](O)C(F)(F)F)c2=O)n1 [Example 187, 5-chloro-2-[3-({3-(4-Chlorophenyl)-5-oxo-4-[(2S)-3,3,3-trifluoro-2-hydroxypropyl]-4,5-dihydro-1H-1,2,4-triazol-1-yl}methyl)-1H-1,2,4-triazol-1-yl]-N-methylbenzamide]	0.0485 µM	0.0123 µM	3.9
CC1(CNC(=O)c2ccccc2-n2cnc(Cn3nc(-c4ccc(Cl)cc4)n(C[C@H](O)C(F)(F)F)c3=O)n2)COC1 [Example 188, 2-[3-({3-(4-Chlorophenyl)-5-oxo-4-[(2S)-3,3,3-trifluoro-2-hydroxypropyl]-4,5-dihydro-1H-1,2,4-triazol-1-yl}ylmethyl)-1H-1,2,4-triazol-1-yl]-N-[(3-methyloxetan-3-yl)methyl]benzamide]	0.568 µM	0.00683 µM	83.2
NC(=O)C1CN(C(=O)c2ccccc2-n2cnc(Cn3nc(-c4ccc(Cl)cc4)n(C[C@H](O)C(F)(F)F)c3=O)n2)C1 [Example 189, 1-{2-[3-({3-(4-Chlorophenyl)-5-oxo-4-[(2S)-3,3,3-trifluoro-2-hydroxypropyl]-4,5-dihydro-1H-1,2,4-triazol-1-yl}methyl)-1H-1,2,4-triazol-1-yl]benzoyl}azetidine-3-carboxamide]	3.65 µM	0.0608 µM	60.1
